# From ChEMBL document CHEMBL2010646, “Small molecule inhibitors of the HPV16-E6 interaction with caspase 8” (Bioorg Med Chem Lett, 2012)
# Calls of active or inactive are those of the source. The rule behind the calls is not given here.
# Columns and labels:
# [1] = biological target: Protein E6 (Human papillomavirus 16) (UniProt P03126); assay: Inhibition of GST-tagged Human papillomavirus 16 protein E6 interaction with His-tagged human caspase 8 expressed in Escherichia coli at 20 nM to 20 uM after 1 hr incubation followed by overnight incubation by Alpha screening technique
# Protein E6 = Protein E6 (Human papillomavirus 16, UniProt P03126); assay: (§1) Inhibition of GST-tagged Human papillomavirus 16 protein E6 interaction with His-tagged human caspase 8 expressed in Escherichia coli after 1 hr incubation followed by overnight incubation by Alpha screening technique
# Caspase-8 (Homo sapiens) = Caspase-8 (Homo sapiens) (UniProt Q14790); assay: Inhibition of GST-tagged human caspase 8 interaction with His-tagged human caspase 8 expressed in Escherichia coli at 0.1 to 10 uM after 1 hr followed by overnight incubation by bead-based binding assay
# [2] = biological target: Protein E6 (Human papillomavirus 16) (UniProt P03126); assay: as §1
# [3] = biological target: Protein E6 (Human papillomavirus 16) (UniProt P03126); assay: Inhibition of GST-tagged Human papillomavirus 16 protein E6 interaction with His-tagged human FADD expressed in Escherichia coli after 1 hr incubation followed by overnight incubation by Alpha screening technique
# Chain of Caspase-8 (Homo sapiens) (Q14790 217-374 limits assumed): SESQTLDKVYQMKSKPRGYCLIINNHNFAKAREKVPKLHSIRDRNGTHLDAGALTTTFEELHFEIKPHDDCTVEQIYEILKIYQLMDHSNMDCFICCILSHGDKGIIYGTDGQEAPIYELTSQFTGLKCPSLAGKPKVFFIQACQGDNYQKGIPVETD
# Chain of Caspase-8 (Homo sapiens) (Q14790 385-479 limits assumed): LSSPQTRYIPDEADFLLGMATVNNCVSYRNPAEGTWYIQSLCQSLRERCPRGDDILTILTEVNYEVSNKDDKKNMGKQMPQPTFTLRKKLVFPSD
# Chain of Protein E6 (P03126 whole entry): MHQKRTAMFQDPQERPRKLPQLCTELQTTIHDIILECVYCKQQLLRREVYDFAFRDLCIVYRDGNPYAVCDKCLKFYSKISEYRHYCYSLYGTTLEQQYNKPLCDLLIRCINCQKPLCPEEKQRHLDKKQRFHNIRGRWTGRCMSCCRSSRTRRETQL
# Chain of Protein E6 (Human papillomavirus 16) (P03126 whole entry): as above
SMILES,inhibition [1],further results
O=c1c(O)c(-c2ccc(O)c(O)c2)oc2cc(O)ccc12,inactive,–
O=c1c(O)c(-c2ccccc2)oc2ccccc12,inactive,–
COc1cc(-c2oc3cc(O)cc(O)c3c(=O)c2O)ccc1O,inactive,–
O=c1c(O)c(-c2cc(O)c(O)c(O)c2)oc2cc(O)cc(O)c12 [MYRICETIN],–,IC50 (Protein E6): 0.85 µM; inhibition (Caspase-8 (Homo sapiens)): inactive
COc1ccc2c(=O)c(O)c(-c3ccccc3)oc2c1,inactive,–
CC(C)c1ccc(-c2oc3c(Cl)cc(CC(=O)O)cc3c(=O)c2O)cc1,inactive,–
O=C(O)Cc1cc(Cl)c2oc(-c3ccc(Cl)cc3)c(O)c(=O)c2c1,inactive,–
COc1cc(O)c2c(=O)c(O)c(-c3ccc(O)c(O)c3)oc2c1,inactive,–
O=c1c(O)c(-c2ccc(O)cc2)oc2cc(O)cc(O)c12 [KAEMPFEROL],–,IC50 (Protein E6): > 20 µM; inhibition [2]: Dose-dependent effect; inhibition [3]: Dose-dependent effect
O=c1cc(-c2ccc(O)cc2)oc2cc(O)cc(O)c12,inactive,–
O=c1c(O)c(-c2ccc(O)cc2O)oc2cc(O)cc(O)c12 [MORIN],–,IC50 (Protein E6): 4 µM; inhibition (Caspase-8 (Homo sapiens)): inactive
O=c1c(O)c(-c2ccccc2O)oc2cc(O)cc(O)c12,inactive,–
O=c1c(O)c(-c2ccccc2)oc2cc(O)ccc12,inactive,–
O=c1c(O)c(-c2ccccc2)oc2ccc(O)cc12,inactive,inhibition (Caspase-8 (Homo sapiens)): inactive
COc1cc(-c2oc3cc(O)ccc3c(=O)c2O)ccc1O,inactive,–
O=c1cc(-c2ccccc2)oc2ccccc12,inactive,–
O=c1c(O)c(-c2ccccc2)oc2cc(O)cc(O)c12,Active,–
O=C(O)Cc1cc(Cl)c2oc(-c3ccccc3)c(O)c(=O)c2c1,inactive,–
O=c1c(O)c(-c2ccc(O)c(O)c2)oc2cc(O)cc(O)c12 [QUERCETIN],–,IC50 (Protein E6): > 20 µM
